# US12441704B2, “Compounds active towards nuclear receptors” (NUEVOLUTION A/S, priority 2019, dated 2025)
# Target: T1, RORγ ligand-binding domain fused to Gal4 (Homo sapiens, UniProt P51449)
# T1 construct: Gal4 (galactose-responsive transcription factor); expressed in transfected cells; host or cells: HEK293
# T1 sequence (P51449 269-508 limits assumed): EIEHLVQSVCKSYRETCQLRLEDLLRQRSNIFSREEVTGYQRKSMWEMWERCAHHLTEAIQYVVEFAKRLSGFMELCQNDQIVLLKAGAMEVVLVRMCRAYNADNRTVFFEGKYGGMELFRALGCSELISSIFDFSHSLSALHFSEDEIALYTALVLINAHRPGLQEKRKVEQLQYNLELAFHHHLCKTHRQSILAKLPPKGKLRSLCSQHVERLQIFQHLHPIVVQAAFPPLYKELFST
# Assay: RORγ Reporter Assay (Gal4)
# Format: cell-based
# Settings: HEK293 cells co-transfected with RORγ LBD-Gal4 and luciferase reporter; 24 h incubation; absolute EC50; read-out: EC50
# Method: The HEK293 cell line is co-transfected transiently with two plasmids, one with the RORγ ligand-binding domain fused to galactose-responsive transcription factor (Gal4), and the other with the luciferase reporter gene and Gal binding sites (UAS). This construction allows to determine the RORγ activity in a cellular system through the measurement of luminescence.
# A suspension of RORγ reporter cells was dispensed into plates and cultured 2 h at 37° C. and 5% CO2. Media formulation consisted in DMEM/F-12 medium (Gibco) supplemented with 10% heat inactivated FBS (Sigma-Aldrich), non-essential aminoacids (Sigma-Aldrich), 2 mM Glutamax (Gibco) and 100 U/mL penicillin (Sigma-Aldrich). Dose-response curves with compounds were prepared in 100% DMSO and further diluted 100-fold in culture medium. Compound solutions were added to the plate containing cells (final DMSO concentration of 0.1%) and incubated for 24 h at 37° C. and 5% CO2. Luciferase detection reagent was added to each well, and relative light units (RLUs) were quantified from each assay well using a plate reading luminometer.
# Values of average RLU±S.D. were computed for all treatment sets, followed by the calculations of percent-reduction of RORγ activity in response to respective test compound. The following formula was used: activity=100*[1−[x test compound/average vehicle] where the theoretical minimum reduction (0% reduction).
row,SMILES,EC50
1,"NC(=O)CN1CCC(C(CO)Nc2ncnc(N(Cc3ccc(C(F)(F)F)cc3)C3CC3)c2F)CC1 (centres unmarked) [Example A7-87, 2-(4-(1-((6-(cyclopropyl(4-(trifluoromethyl)benzyl)amino)-5-fluoropyrimidin-4-yl)amino)-2-hydroxyethyl)piperidin-1-yl)acetamide]",181 nM
2,"NC(=O)CN1CC[C@@H](CNc2ncnc(N(Cc3ccc(C(F)(F)F)cn3)C3CCC3)c2F)[C@H](O)C1 (racemic) [Example A7-24, rac-2-((3R,4R)-4-(((6-(cyclobutyl((5-(trifluoromethyl)pyridin-2-yl)methyl)amino)-5-fluoropyrimidin-4-yl)amino)methyl)-3-hydroxypiperidin-1-yl)acetamide]",120 nM
3,"NC(=O)CN1CC[C@@H](CNc2ncnc(N(Cc3ccc(C(F)(F)F)nc3)C3CCC3)c2F)[C@H](O)C1 (racemic) [Example A7-23, rac-2-((3R,4R)-4-(((6-(cyclobutyl((6-(trifluoromethyl)pyridin-3-yl)methyl)amino)-5-fluoropyrimidin-4-yl)amino)methyl)-3-hydroxypiperidin-1-yl)acetamide]",81 nM
4,"NC(=O)CN1CC[C@H](CNc2ncnc(N(Cc3ccc(C(F)(F)F)cc3)C3CCC3)c2F)[C@@H](O)C1 (stereo in doubt) [Example A7-16-2, rel-2-((3R,4R)-4-(((6-(cyclobutyl(4-(trifluoromethyl)benzyl)amino)-5-fluoropyrimidin-4-yl)amino)methyl)-3-hydroxypiperidin-1-yl)acetamide]",22 nM
5,"CCN(Cc1ccc(C(F)(F)F)cc1)c1ncnc(NC[C@H]2CCN(CC(N)=O)C[C@@H]2O)c1F (single isomer, unassigned) [Example A7-21-1]",9.3 nM
6,"NC(=O)CN1CC[C@H](CNc2ncnc(N(Cc3ccc(C(F)(F)F)cc3)C3CC3)c2F)[C@@H](F)C1 (relative stereo) [Example A7-05-2, rel-2-((3R,4R)-4-(((6-(cyclopropyl(4-(trifluoromethyl)benzyl)amino)-5-fluoropyrimidin-4-yl)amino)methyl)-3-fluoropiperidin-1-yl)acetamide]",14 nM
7,"NC(=O)CN1CC[C@@](O)(CNc2ncnc(N(Cc3ccc(C(O)(C(F)(F)F)C(F)(F)F)cc3)C3CC3)c2F)[C@H](O)C1 (relative stereo) [Example D5-06, rel-2-((3R,4R)-4-(((6-(cyclopropyl(4-(1,1,1,3,3,3-hexafluoro-2-hydroxypropan-2-yl)benzyl)amino)-5-fluoropyrimidin-4-yl)amino)methyl)-3,4-dihydroxypiperidin-1-yl)acetamide]",16 nM
8,"CN(Cc1ccc(C(F)(F)F)cc1)c1ncnc(NC[C@H]2CCN(CC(N)=O)C[C@@H]2O)c1F (single isomer, unassigned) [Example A7-20-1]",35 nM
9,"NC(=O)CN1CC[C@@H](CNc2ncnc(N(Cc3ccc(OC(F)F)cc3F)C3CCC3)c2F)[C@H](O)C1 (stereo in doubt) [Example A7-15, rac-2-((3R,4R)-4-(((6-(cyclobutyl(4-(difluoromethoxy)-2-fluorobenzyl)amino)-5-fluoropyrimidin-4-yl)amino)methyl)-3-hydroxypiperidin-1-yl)acetamide]",160 nM
10,"NC(=O)CN1CC[C@H](CNc2ncnc(N(Cc3cnc(C(F)(F)F)nc3)C3CC3)c2F)[C@@H](O)C1 (single isomer, unassigned) [Example A7-17-1]",40 nM
11,"COC(=O)C1(CNc2ncnc(N(Cc3ccc(C(F)(F)F)cc3)C3CC3)c2F)CCN(CC(N)=O)CC1 [Example A7-08, methyl 1-(2-amino-2-oxoethyl)-4-(((6-(cyclopropyl(4-(trifluoromethyl)benzyl)amino)-5-fluoropyrimidin-4-yl)amino)methyl)piperidine-4-carboxylate]",15 nM
12,"NC(=O)CN1CC[C@H](CNc2ncnc(N(Cc3ccc(C(F)(F)F)cc3F)C3CC3)c2F)[C@@H](O)C1 (racemic) [Example A7-22, rac-2-((3R,4R)-4-(((6-(cyclopropyl(2-fluoro-4-(trifluoromethyl)benzyl)amino)-5-fluoropyrimidin-4-yl)amino)methyl)-3-hydroxypiperidin-1-yl)acetamide]",4 nM
13,"NC(=O)CN1CCC(CNc2ncnc(N(Cc3ccc(C(F)(F)F)cc3)C3CC3)c2F)(c2nc[nH]n2)CC1 [Example A7-80, 2-(4-(((6-(Cyclopropyl(4-(trifluoromethyl)benzyl)amino)-5-fluoropyrimidin-4-yl)amino)methyl)-4-(1H-1,2,4-triazol-3-yl)piperidin-1-yl)acetamide]",53 nM
14,"NC(=O)CN1CC[C@@H](CNc2ncnc(N(Cc3ccc(C(F)F)nc3)C3CC3)c2F)[C@H](O)C1 (single isomer, unassigned) [Example A7-25-1]",630 nM
15,"NC(=O)CN1CC[C@H](CNc2ncnc(N(Cc3ccc(C(F)(F)F)cc3F)C3CC3)c2F)[C@@H](O)C1 (single isomer, unassigned) [Example A7-22-1]",4.9 nM
16,"CN(Cc1ccc(C(F)(F)F)cc1)c1ncnc(NC[C@H]2CCN(CC(N)=O)C[C@@H]2O)c1F (single isomer, unassigned) [Example A7-20-2]",32 nM
17,"NC(=O)C(C1CCOCC1)N1CC[C@@H](CNc2ncnc(N(Cc3ccc(C(F)(F)F)cc3)C3CC3)c2F)[C@H](O)C1 (mixture of isomers) [Example A7-71, rac-2-((3R,4R)-4-(((6-(Cyclopropyl(4-(trifluoromethyl)benzyl)amino)-5-fluoropyrimidin-4-yl)amino)methyl)-3-hydroxypiperidin-1-yl)-2-(tetrahydro-2H-pyran-4-yl)acetamide]",3.9 nM
18,"NC(=O)CN1CC[C@](O)(CNc2ncnc(N(Cc3ccccc3F)C3CC3)c2F)[C@@H](O)C1 (relative stereo) [Example D5-10, rel-2-((3R,4R)-4-(((6-(cyclopropyl(2-fluorobenzyl)amino)-5-fluoropyrimidin-4-yl)amino)methyl)-3,4-dihydroxypiperidin-1-yl)acetamide]",> 1000 nM
19,"CCN(Cc1ccc(C(F)(F)F)cc1F)c1ncnc(NC[C@@H]2CCN(CC(N)=O)C[C@H]2O)c1F (stereo in doubt) [Example A7-26, rac-2-((3R,4R)-4-(((6-(ethyl(2-fluoro-4-(trifluoromethyl)benzyl)amino)-5-fluoropyrimidin-4-yl)amino)methyl)-3-hydroxypiperidin-1-yl)acetamide]",17 nM
20,"CCN(Cc1ccc(C(F)(F)F)cc1F)c1ncnc(NC[C@]2(O)CCN(CC(N)=O)C[C@H]2O)c1F (single isomer, unassigned) [Example D5-03-1-2]",9.3 nM
21,"NC(=O)CN1CC[C@@](O)(CNc2ncnc(N(Cc3ccc(C(F)(F)F)cc3)C3CC3)c2F)[C@H](O)C1 (single isomer, unassigned) [Example D5-02-1-2]",61 nM
22,"NC(=O)CN1CC[C@@H](CNc2ncnc(N(Cc3ccc(C(F)F)nc3)C3CC3)c2F)[C@H](O)C1 (stereo in doubt) [Example A7-25, rac-2-((3R,4R)-4-(((6-(cyclopropyl((6-(difluoromethyl)pyridin-3-yl)methyl)amino)-5-fluoropyrimidin-4-yl)amino)methyl)-3-hydroxypiperidin-1-yl)acetamide]",330 nM
23,"NC(=O)CN1CCC(CNc2ncnc(N(Cc3ccc(C(F)(F)F)cc3)C3CC3)c2F)C(C(F)(F)F)C1 (single isomer, unassigned) [Example A7-07-4, 2-(4-(((6-(cyclopropyl(4-(trifluoromethyl)benzyl)amino)-5-fluoropyrimidin-4-yl)amino)methyl)-3-(trifluoromethyl)piperidin-1-yl)acetamide]",170 nM
24,"NC(=O)CN1CC[C@@H](CNc2ncnc(N(Cc3ccc(C(F)(F)F)cc3)C3CCC3)c2F)[C@H](O)C1 (stereo in doubt) [Example A7-16, rac-2-((3R,4R)-4-(((6-(cyclobutyl(4-(trifluoromethyl)benzyl)amino)-5-fluoropyrimidin-4-yl)amino)methyl)-3-hydroxypiperidin-1-yl)acetamide]",19 nM
25,"CCN(Cc1ccc(C(F)(F)F)cc1)c1ncnc(NC[C@H]2CCN(CC(N)=O)C[C@@H]2O)c1F (single isomer, unassigned) [Example A7-21-2]",13 nM
26,"CC(c1ccc(C(F)(F)F)cc1)N(c1ncnc(NCC2CCN(CC(N)=O)CC2)c1F)C1CC1 (centres unmarked) [Example A7-34, 2-(4-(((6-(cyclopropyl(1-(4-(trifluoromethyl)phenyl)ethyl)amino)-5-fluoropyrimidin-4-yl)amino)methyl)piperidin-1-yl)acetamide]",90 nM

# Same assay, conditions: compounds of the present disclosure; value from Table 2 herein; read-out: Gal4 assay EC50
row,SMILES,EC50
1,"NC(=O)CN1CC[C@H](CNc2ncnc(N(Cc3cnc(C(F)(F)F)nc3)C3CC3)c2F)[C@@H](O)C1 (single isomer, unassigned) [Example A7-17-1]",< 100 nM
2,"CN(Cc1cccc(OC(F)(F)F)c1)c1ncnc(NC[C@@H]2CCN(CC(N)=O)C[C@H]2O)c1F (racemic) [Example F2-07, rac-2-((3R,4R)-4-(((5-fluoro-6-(methyl(3-(trifluoromethoxy)benzyl)amino)pyrimidin-4-yl)amino)methyl)-3-hydroxypiperidin-1-yl)acetamide]",< 100 nM
3,"CC(c1ccc(C(F)(F)F)cc1)N(c1ncnc(NCC2CCN(CC(N)=O)CC2)c1F)C1CC1 (centres unmarked) [Example A7-34, 2-(4-(((6-(cyclopropyl(1-(4-(trifluoromethyl)phenyl)ethyl)amino)-5-fluoropyrimidin-4-yl)amino)methyl)piperidin-1-yl)acetamide]",< 100 nM
